{
  "source": "patent US20080103209A1",
  "about": "“Compounds And Methods For Treating Non-Inflammatory Pain Using Ppar Alpha Agonists” (The Regents of The University of California, priority 2004, published 2008)",
  "key": {"[1]": {"tested_on": "mice", "test": "Carrageenan-evoked paw edema (acute)", "format": "in vivo, mouse", "conditions": "wild-type C57Bl6J; PEA 10 mg-kg^−1 i.p., WY-14643 20 mg-kg^−1 i.p.", "excerpt": "In addition to rapid-onset analgesia, PEA also exerts prolonged anti-inflammatory effects [Benvenuti, et al., Boll Soc It Biol Sper 44, 809-813 (1968); Lambert, et al., Curr Med. Chem. 9, 663-74 (2002)], which are associated with the down-regulation of pro-inflammatory proteins such as nitric oxide synthase (NOS) [Costa, et al., Br J Pharmacol 137, 413-20. (2002)]. Two models of acute inflammation were used to examine whether such effects are mediated through PPARα. First, paw edema was induced in C57B16J wild-type and PPARα^−/− mice by local injection of the irritant, carrageenan [Cirino, et al., Eur J Pharmacol 166, 505-10 (1989)]. […] Next, ear edema was produced in CD1 mice by topical administration of the phorbol ester, 12-O-tetradecanoylphorbol-13-acetate (TPA) [Sheu, et al., J Invest Dermatol., 94-101. (2002)]. […] In a parallel set of experiments, the effects of PEA (20 μg) on TPA-induced edema were tested in C57B16J wild-type and PPARα^−/− mice. […] Together, these findings indicate that PEA reduces acute nociception and inflammation through activation of PPARα.\nAn inflammatory response was initiated by injecting 2% (w v^−1, 20 μl) λ-carrageenan in sterile saline into mice hind paws using a 27-gauge needle. Drugs were administered 30 minutes before carrageenan (i.p.). Paw edema was measured using a plethysmometer (Ugo Basile, Italy)."}, "[2]": {"target": "T1, human PPARα (Homo sapiens, UniProt Q07869)", "T1 construct": "expressed in transfected cells", "T1 sequence (Q07869 239-466 limits assumed)": "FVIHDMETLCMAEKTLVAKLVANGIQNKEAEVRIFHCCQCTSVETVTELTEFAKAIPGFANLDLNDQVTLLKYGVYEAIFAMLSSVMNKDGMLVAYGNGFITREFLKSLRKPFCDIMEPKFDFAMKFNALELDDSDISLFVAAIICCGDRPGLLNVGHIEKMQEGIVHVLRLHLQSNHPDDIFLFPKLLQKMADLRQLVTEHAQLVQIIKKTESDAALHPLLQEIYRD", "test": "PPARα transactivation assay (HeLa cells, luciferase reporter)", "format": "cell-based", "conditions": "HeLa cells, n=12; read-out: half-maximal effective concentration (EC50), PPARα activation", "description": "(§1) Transactivation assays were performed as previously described [Fu et al., Nature 425:90-93 (2003)].\nPPAR-α transactivation. Plasmids were generated which contained the ligand-binding domain of human PPAR-α (nucleotides 499-1,407) fused to the DNA-binding domain of yeast GAL4 under control of the human cytomegalovirus promoter and to a neomycin resistance gene to provide stable selection with 0.2 mg-ml-1 G418 (Calbiochem). We cultured HeLa cells in Dulbecco's-modified Eagles's medium (DMEM) supplemented with fetal bovine serum (10%), transfected them with Fugene 6 ([…], Roche) containing the pFR-luc plasmid ([…], Stratagene) and, 18 h later, replaced the media with DMEM containing hygromycin (0.1 mg ml−1, Calbiochem). […] Cells were maintained in DMEM containing hygromycin and G418. For transactivation assays, we seeded cells in 6-well plates and incubated them for 7 h in DMEM containing hygromycin and G418, plus appropriate concentrations of test compounds. We used a dual-luciferase reporter assay system (Promega) and an MLX Microtiter® plate luminometer (Dynex) to determine luciferase activity in cell lysates."}, "[3]": {"target": "T2, PPARγ (Homo sapiens, UniProt P37231)", "T2 construct": "expressed in transfected cells", "T2 sequence (P37231 1-505)": "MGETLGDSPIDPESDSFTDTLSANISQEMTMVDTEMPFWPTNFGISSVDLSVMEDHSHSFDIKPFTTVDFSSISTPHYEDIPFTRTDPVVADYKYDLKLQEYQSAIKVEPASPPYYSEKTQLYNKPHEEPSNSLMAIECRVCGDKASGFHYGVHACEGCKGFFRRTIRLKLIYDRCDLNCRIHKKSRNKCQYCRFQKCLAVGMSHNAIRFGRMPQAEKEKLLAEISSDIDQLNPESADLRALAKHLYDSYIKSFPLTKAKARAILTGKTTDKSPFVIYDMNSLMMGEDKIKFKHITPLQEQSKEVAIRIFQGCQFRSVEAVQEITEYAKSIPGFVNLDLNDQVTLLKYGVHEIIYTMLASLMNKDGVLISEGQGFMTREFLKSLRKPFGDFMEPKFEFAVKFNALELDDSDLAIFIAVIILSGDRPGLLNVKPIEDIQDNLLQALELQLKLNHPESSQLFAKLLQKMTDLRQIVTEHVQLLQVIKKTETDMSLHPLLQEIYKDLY", "test": "PPARγ transactivation assay", "format": "cell-based", "conditions": "concentrations as high as 20 μM", "description": "as §1"}, "[4]": {"tested_on": "PKA-IIα regulatory subunit phosphorylation on Ser^96", "test": "Immunoblot of lumbar spinal cord extracts, phosphorylated PKA regulatory subunit", "format": "in vivo, mouse", "conditions": "neuropathic mice, PEA 30 mg-kg^−1 s.c. once daily for two weeks", "description": "(§2) Opiate analgesics have a high liability to produce tolerance, a progressive loss of pharmacological activity caused by repeated drug administrations (Waldhoer et al., Annu Rev Biochem, 73, 953 (2004)). To assess whether tolerance develops to the antihyperalgesic effects of PPARα agonists, PEA (30 mg-kg^−1, s.c.) was administered once a day for 14 consecutive days from the time of surgery, measuring mechanical and thermal hyperalgesia at day 7 and 14.\n(§3) Immunoblot analysis. Lumbar spinal cord tissue was weighed, homogenized in Tris-HCl (20 mM, pH 7.5), 10 mM NaF, 150 mM NaCl, 1% Nonidet P-40, 1 mM PMSF, 1 mM Na3VO4, leupeptin and trypsin inhibitor (10 μg/ml). After 1 h, the tissue lysates were subjected to centrifugation ay 100,000×g for 15 min at 4° C. Protein concentrations were estimated using a Bio-Rad protein assay and bovine serum albumin as a standard. Equal amounts of protein (20 μg) were dissolved in Laemmli sample buffer, boiled for 5 min, subjected to sodium dodecyl sulphate-polyacrylamide gel electrophoresis (8% polyacrylamide) and transferred onto nitrocellulose membranes at 240 mA for 40 min at room temperature. […] The films were scanned and densitometrically analysed with a model GS-700 imaging densitometer."}, "[5]": {"tested_on": "PKAα catalytic subunit", "test": "Immunoblot of lumbar spinal cord extracts, PKAα catalytic subunit", "format": "in vivo, mouse", "conditions": "neuropathic mice, PEA 30 mg-kg^−1 s.c. once daily for two weeks; change not statistically significant", "description": "as §2, §3"}},
  "data": [
    {"smiles": "CCCCCCCCCCCCCCCC(=O)NCCO", "note": "[PEA, palmitoylethanolamide]", "values": [
      {"measurement": "carrageenan paw edema in wild-type mice", "setting": "[1]", "result": "decreased edema"},
      {"measurement": "EC50", "setting": "[2]", "result": 3, "unit": "µM"},
      {"measurement": "PPARγ activation", "setting": "[3]", "result": "did not activate"},
      {"measurement": "phosphorylation of PKA-IIα regulatory subunit at Ser^96", "setting": "[4]", "result": "reduced"},
      {"measurement": "spinal tissue levels of PKA α catalytic subunit", "setting": "[5]", "result": "slightly decreased"}
    ]}
  ]
}
